Assay: xn = mol fraction of the nth substance listed

CCCc1ccccc1 + CC(CC(C)(C)C)CC(C)(C)C
viscosity [mPa·s], 102 kPa
Conditions	x1 = 0.101	x1 = 0.2003	x1 = 0.3007	x1 = 0.4005	x1 = 0.498	x1 = 0.6	x1 = 0.7	x1 = 0.8001	x1 = 0.9002
293.15 K	1.24	1.16	1.09	1.03	0.983	0.939	0.905	0.877	0.861
303.15 K	1.04	0.986	0.929	0.883	0.847	0.815	0.787	0.762	0.748
313.15 K	0.901	0.852	0.809	0.773	0.744	0.712	0.689	0.666	0.654
323.15 K	0.785	0.75	0.713	0.685	0.656	0.629	0.609	0.589	0.578

CC[N+](CC)(CC)CC.Cc1ccc(S(=O)(=O)[O-])cc1 + CC(O)CO
101 kPa, x1 = 0.2
Conditions	viscosity [mPa·s]
298.15 K	66.9
303.15 K	51.2
308.15 K	39.8
313.15 K	31.6
318.15 K	25.5
323.15 K	20.9

CCCc1ccccc1 + CCC(=O)O
308.15 K, 101.33 kPa
Conditions	viscosity [mPa·s]
x2 = 0.0799	0.7011
x2 = 0.1548	0.7021
x2 = 0.2233	0.7031
x2 = 0.275	0.7037
x2 = 0.411	0.7084
x2 = 0.519	0.7218
x2 = 0.6192	0.7357
x2 = 0.7099	0.753
x2 = 0.7906	0.7717
x2 = 0.8664	0.8012
x2 = 0.9357	0.8334

C1CCOC1 + CCC(C)O
viscosity [mPa·s], 101 kPa
Conditions	298.15 K	313.15 K
x1 = 0.0637	2.356	1.464
x1 = 0.1052	2.02	1.309
x1 = 0.1565	1.747	1.153
x1 = 0.2117	1.467	0.9942
x1 = 0.3052	1.155	0.8235
x1 = 0.4013	0.9585	0.7044
x1 = 0.4556	0.8592	0.6537
x1 = 0.4888	0.8108	0.6218
x1 = 0.5	0.8021	–
x1 = 0.6054	0.6741	0.5395
x1 = 0.7009	0.5953	0.4897
x1 = 0.8036	0.533	0.4512
x1 = 0.8596	0.5129	0.4316
x1 = 0.9151	0.4818	0.4075
x1 = 0.9497	0.4749	0.4072

Reference: the CheMixHub viscosity set
